Experiment [1] has as its system SMMC-7721. Kind of experiment: Antiproliferative activity against human SMMC-7721 cells measured after 48 hrs. The format is functional, cell-based. Particulars: SMMC-7721, 48 h.
The next experiment deals with Hep 3B2. Kind of experiment: Cytotoxicity against human Hep3B cells by MTT assay. The format is functional, cell-based. (In general: Formazan colour is commonly taken as a measure of viable cells.)
In experiment [2] the test system is HepG2. Kind of experiment: Cytotoxicity against human HepG2 cells by MTT assay. The format is functional, cell-based.
The next experiment concerns HA22T cell line. Briefly: Cytotoxicity against human HA22T cells by MTT assay. The format is functional, cell-based.
Experiment [3] relates to HepG2. Briefly: Anticancer activity against human HepG2 cells by MTT assay. The format is functional, cell-based.
Another experiment concerns Bel-7402. Briefly: Cytotoxicity against human 7402 hepatoma cells incubated for 24 hrs by MTT assay. The format is functional, cell-based. The settings on record: Bel-7402, 24 h.
The test system of a further experiment is MDA-MB-435. Briefly: Cytotoxicity against human MDA-MB-435 cells incubated for 24 hrs by MTT assay. The format is functional, cell-based. Particulars: MDA-MB-435, 24 h.
The subject of experiment [4] is HepG2. Kind of experiment: Antiproliferative activity against human HepG2 cells incubated for 72 hrs by MTT assay. The format is functional, cell-based. The settings on record: HepG2, 72 h.
The test system of experiment [5] is HepG2. Briefly: Antiproliferative activity against doxorubicin resistant human HepG2 cells for 24 hrs in presence of c-phycocyanin by MTT assay. The settings on record: HepG2, 24 h.
Experiment [6] has as its system HepG2. Kind of experiment: Cytotoxicity against human HepG2 cells by SRB assay. The format is functional, cell-based. On the technique in general: Sulforhodamine B stains cellular protein and so reports cell mass.
Experiment [7] concerns SMMC-7721. Briefly: Cytotoxicity against human SMMC-7721 cells by SRB assay. The format is functional, cell-based.
For a further experiment, the system named is PLC-PRF-5. Kind of experiment: Cytotoxicity against human PLC-PRF-5 cells by SRB assay. The format is functional, cell-based.
A short description of experiment [8]: Antiproliferative activity against human HCC cells by MTT assay. The format is functional, cell-based.
The test system of another experiment is Huh-7. Briefly: Antiproliferative activity against human Huh-7 cells by MTT assay. The format is functional, cell-based.
The next experiment relates to SNU-387. Briefly: Antiproliferative activity against human SNU-387 cells by MTT assay. The format is functional, cell-based.
Experiment [9] deals with HepG2. Kind of experiment: Antiproliferative activity against human HepG2 cells by MTT assay. The format is functional, cell-based.
Experiment [10] has as its system HepG2. Briefly: Antiproliferative activity against human HepG2 cells incubated for 72 hrs. The format is functional, cell-based. Particulars: HepG2, 72 h.
The test system of experiment [11] is HepG2. Kind of experiment: Cytotoxicity against human HepG2 cells incubated for 48 hrs by MTT assay. The format is functional, cell-based. Particulars: HepG2, 48 h.
Another experiment relates to SK-HEP1. Briefly: Antiproliferative activity against human SK-HEP1 cells assessed as cell growth inhibition by SRB method. The format is functional.
Experiment [12] concerns HepG2. Kind of experiment: Antiproliferative activity against human HepG2 cells assessed as cell growth inhibition by SRB method. The format is functional.
Experiment [13] deals with HepG2. Kind of experiment: Anticancer activity against human HepG2 cells by SRB assay. The format is functional, cell-based.

As to `O=c1[nH]cc(F)c(=O)[nH]1` [FLUOROURACIL], half-maximal inhibition with SMMC-7721 [1] (IC50) was put at 20 µM. For the molecule `CCCCC/C=C\CC1(O)C=C(Br)C(=O)/C1=C\C=C\CCCC(=O)OC` (stereo not given), the IC50 with Hep 3B2 came to 0.47 µM; in the experiment with HepG2 [2], 0.59 µM; in the experiment with HA22T cell line, 0.41 µM. `CO[C@@]12[C@H](COC(N)=O)C3=C(C(=O)C(C)=C(N)C3=O)N1C[C@@H]1N[C@@H]12` [MITOMYCIN]: the midpoint of inhibition in the experiment with HepG2 [3], the IC50, lay at 0.13 µM. With `COC(=O)N[C@H]1[C@@H](C)O[C@@H](O[C@H]2C/C=C(\C)[C@@H]3C=C[C@@H]4[C@@H](O[C@H]5C[C@@H](O[C@H]6C[C@@H](O)[C@@H](O[C@@H]7C[C@@H](O)[C@@H](OC)[C@H](C)O7)[C@H](C)O6)[C@@H](O)[C@H](C)O5)[C@H](C)C[C@H](C)[C@H]4[C@]3(C)/C(O)=C3\C(=O)O[C@]4(C[C@@H](C)C(CO)=C[C@H]4/C=C/2C)C3=O)C[C@]1(C)N`, the IC50 in the experiment on Bel-7402 was 625 µM; in the experiment with MDA-MB-435, 6.48 µM.

For the molecule `COc1ccc2[nH]c([C@@H]3C4C5CCC([C@H](C)CCCC(C)C)[C@@]5(C)CCC4[C@@]4(C)CC[C@H](O)C[C@@]34O)nc2c1` (stereo not given in full), the IC50 in the experiment with HepG2 [4] came to 8.4 µM. Consider `COc1cccc2c1C(=O)c1c(O)c3c(c(O)c1C2=O)C[C@@](O)(C(=O)CO)C[C@@H]3O[C@H]1C[C@H](N)[C@H](O)[C@H](C)O1` [DOXORUBICIN], for which the concentration for half-maximal inhibition (IC50) amounted to 10 µM in the experiment on HepG2 [5], 0.919 µM in the experiment on HepG2 [6], 0.706 µM in the experiment with SMMC-7721 [7] and 1.03 µM with PLC-PRF-5. In the case of `CNC(=O)c1cc(Oc2ccc(NC(=O)Nc3ccc(Cl)c(C(F)(F)F)c3)cc2)ccn1` [SORAFENIB], the 50% inhibitory concentration (IC50) is 21.2 µM in experiment [8], 4.25 µM in the experiment on Huh-7, 259 µM with SNU-387 and 6.4 µM in the experiment on HepG2 [9]. Turning to `CC[C@H]1C=CCC[C@@]2(C[C@@H]3CC[C@]4(O)[C@H](C(=O)OCCCCCCCCCCCCCCCCC(=O)N(CCCN)C[C@@H](O)CCN)[C@]5(CCC[C@@H](C)O5)NC(=N2)N34)O1`, in the experiment with HepG2 [10], the IC50 came to 2.11 µM.

Turning to `C[C@@H]1O[C@@H](O[C@H]2CC[C@H](O[C@@]3(C)CC(=O)[C@]4(O)C5=C(C=C[C@]4(O)C3)C(=O)c3c(ccc([C@H]4C[C@H]6O[C@H]7CC(=O)[C@H](C)O[C@@H]7O[C@@H]6[C@@H](C)O4)c3O)C5=O)O[C@H]2C)C=CC1=O`, the IC50 in the experiment on HepG2 [6] turned out to be 0.135 µM; in the experiment on SMMC-7721 [7] it was 0.033 µM; in the experiment on PLC-PRF-5 it was 0.244 µM. In the experiment on HepG2 [11], `CCC(C)SC1=C(SC)C(=O)c2c(O)c3c(c(O)c2C1=O)C[C@](C)(O)[C@H](O)C3` (stereo not given in full) registered an IC50 of 2.39 µM. Molecule `Cc1cc2nc([C@@H]3C4C5CCC([C@H](C)CCCC(C)C)[C@@]5(C)CCC4[C@@]4(C)CC[C@H](O)C[C@@]34O)[nH]c2cc1C` (stereo not given in full) returned a concentration for half-maximal inhibition (IC50) in the experiment with HepG2 [4] of 4.5 µM. As for `C/C=C\C[C@@H](C/C=C\NC(=O)[C@@H](NC(=O)\C=C/C=C\C(C)=C\[C@H](C)[C@@H]1CC=C(OC)C(=O)O1)C(C)(C)C)OC(N)=O` [PLOCABULIN], the GI50 in the experiment on SK-HEP1 was 0.000179 µM; with HepG2 [12], 0.00276 µM. With `C/C=C(\N=C=S)C(=O)O[C@H]1[C@@H](OC(C)=O)[C@@H](O)[C@H]([C@@]2(O)CC(=O)C(N)=C(C(=O)O)C2=O)O[C@@H]1C`, the half-inhibitory concentration (IC50) in the experiment with HepG2 [2] was 4.3 µM.

With `COC1=CC(=O)c2c(O)c3c(c(O)c2C1=O)C[C@]1(C)OCO[C@@H]1C3`, the IC50 in the experiment with HepG2 [11] was determined as 12.8 µM. Turning to `CC1=CC[C@@H]2[C@@H](CC[C@@]2(C)O)C(C)(C)[C@H]1CC[C@@H]1[C@@]2(C)CC[C@@H](O)C(C)(C)O[C@@H]2CC[C@]1(C)O`, the IC50 in the experiment on HepG2 [13] was found to be 17.2 µM. Take `COC(=O)N[C@H]1[C@@H](C)O[C@@H](O[C@H]2C/C=C(\C)[C@@H]3C=C[C@@H]4[C@@H](O[C@H]5C[C@@H](O[C@H]6C[C@@H](O)[C@@H](O[C@@H]7C[C@@H](O)[C@@H](OC)[C@H](C)O7)[C@H](C)O6)[C@@H](O)[C@H](C)O5)[C@H](C)C[C@H](C)[C@H]4[C@]3(C)/C(O)=C3\C(=O)O[C@]4(C[C@@H](C)C(CO)=C[C@H]4/C=C/2C)C3=O)C[C@]1(C)[N+](=O)[O-]`: the 50% inhibitory concentration (IC50) in the experiment on Bel-7402 was determined as 0.506 µM; in the experiment on MDA-MB-435, 52.1 µM.

On to `CC(=O)O[C@H]1CC[C@]2(C)C3CC[C@@]4(C)C(CCC4[C@H](C)CCCC(C)C)C3[C@@H](c3nc4ccccc4[nH]3)[C@]2(O)C1` (stereo not given in full), for which the half-maximal inhibitory concentration (IC50) in the experiment with HepG2 [4] was determined as 4.2 µM.

The IC50 is the concentration at which inhibition is half-maximal. Usually GI50 stands for the concentration at which growth is held to half of that of the control.

Source of the values: ChEMBL document CHEMBL5236548, “Marine Natural Products: A Potential Source of Anti-hepatocellular Carcinoma Drugs” (J Med Chem, 2021).
